Experimental data: US9656978B2, “Acylpiperazines as inhibitors of transglutaminase and their use in medicine” (ASTON UNIVERSITY, priority 2012, dated 2017)

Experiments:
Type in all cases: biochemical
[1] = target: T1, purified recombinant human FXIIIa (Homo sapiens, UniProt P00488); experiment: Selectivity assay, FXIIIa, biotin X-cadaverine incorporation into N,N′-dimethylcasein (Example 4); conditions: recombinant human FXIIIa 2 μg/ml, thrombin preactivated, 1 h at 37° C.; errors are SD; read-out: FACTOR XIII IC50
T1 construct: purchased Zedira, Germany
T1 sequence (P00488 39-732 limits assumed): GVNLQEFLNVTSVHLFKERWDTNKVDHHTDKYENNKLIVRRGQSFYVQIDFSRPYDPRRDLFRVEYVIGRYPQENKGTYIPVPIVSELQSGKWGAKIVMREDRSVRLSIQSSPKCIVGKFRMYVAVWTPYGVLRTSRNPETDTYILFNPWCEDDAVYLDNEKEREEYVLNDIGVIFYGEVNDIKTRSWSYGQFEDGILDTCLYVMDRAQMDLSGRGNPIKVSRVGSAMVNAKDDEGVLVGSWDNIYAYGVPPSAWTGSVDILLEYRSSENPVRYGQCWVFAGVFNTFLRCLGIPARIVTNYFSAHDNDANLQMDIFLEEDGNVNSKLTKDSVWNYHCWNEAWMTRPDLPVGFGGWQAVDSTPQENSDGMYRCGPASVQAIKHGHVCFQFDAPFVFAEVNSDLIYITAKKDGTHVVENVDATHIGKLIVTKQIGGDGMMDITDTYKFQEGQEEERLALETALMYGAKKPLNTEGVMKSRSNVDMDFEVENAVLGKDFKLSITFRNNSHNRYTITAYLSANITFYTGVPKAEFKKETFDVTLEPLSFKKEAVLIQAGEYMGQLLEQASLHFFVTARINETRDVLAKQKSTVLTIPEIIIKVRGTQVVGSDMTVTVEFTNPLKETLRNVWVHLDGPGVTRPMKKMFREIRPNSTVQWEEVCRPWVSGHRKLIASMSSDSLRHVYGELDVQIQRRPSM
Procedure: (§1) TG transamidation activity and the effect of inhibitors on activity was measured by biotin X-cadaverine incorporation into N,N′-dimethylcasein. After coating 96 well plates with 100 μl of 10 mg/ml N,N′-dimethylcasein in 50 mM Tris-Cl, pH8 at 4° C. over night, plates were washed with TBS-0.05% Tween-20(v/v), pH 7.6 and TBS, pH 7.6, and either 100 μl purified recombinant human TG2 (2 μg/ml Zedira, Germany) or 100 μl purified recombinant human FXIIIa (2 μg/ml Zedira, Germany, preactivated by incubation with 0.01 U bovine thrombin/μg FXIII at room temperature for 30 minutes) in 50 mM Tris-HCl, pH7.4, containing 1 mM DTT, 10 mM CaCl2 and 0.1 μM biotin-cadaverine added into the coated wells containing the appropriate concentration of inhibitor. The reaction was allowed to proceed for 1 h at 37° C. The plate was then washed twice with TBS-Tween-20 (v/v), pH 7.6 and once with TBS, pH 7.6 before being blocked with 100 μl of blocking buffer (3% (w/v) BSA in TBS-Tween, pH 7.6) for 30 min at 37° C. After blocking, the wells were incubated with 100 μl HRP-conjugated ExtrAvidin peroxidase (Sigma-Aldrich, UK) in blocking buffer (1:1,000 dilution) for 1 h at 37° C. After another set of washes, TG2 activity was measured using Sigma Fast OPD, tablets dissolved in 20 ml of distilled H2O. The colour was developed by adding 2.5M H2SO4 and the absorbance at 490 nm measured using a microplate reader ELx808™. All inhibitors were dissolved in DMSO as a 100 mM solution prior to addition to the assay.

[2] = target: T2, purified recombinant human TG2 (Homo sapiens, UniProt P21980); experiment: Selectivity assay, TG2, biotin X-cadaverine incorporation into N,N′-dimethylcasein (Example 4); conditions: recombinant human TG2 2 μg/ml, 1 h at 37° C.; errors are SD
T2 construct: purchased Zedira, Germany
T2 sequence (P21980 1-687): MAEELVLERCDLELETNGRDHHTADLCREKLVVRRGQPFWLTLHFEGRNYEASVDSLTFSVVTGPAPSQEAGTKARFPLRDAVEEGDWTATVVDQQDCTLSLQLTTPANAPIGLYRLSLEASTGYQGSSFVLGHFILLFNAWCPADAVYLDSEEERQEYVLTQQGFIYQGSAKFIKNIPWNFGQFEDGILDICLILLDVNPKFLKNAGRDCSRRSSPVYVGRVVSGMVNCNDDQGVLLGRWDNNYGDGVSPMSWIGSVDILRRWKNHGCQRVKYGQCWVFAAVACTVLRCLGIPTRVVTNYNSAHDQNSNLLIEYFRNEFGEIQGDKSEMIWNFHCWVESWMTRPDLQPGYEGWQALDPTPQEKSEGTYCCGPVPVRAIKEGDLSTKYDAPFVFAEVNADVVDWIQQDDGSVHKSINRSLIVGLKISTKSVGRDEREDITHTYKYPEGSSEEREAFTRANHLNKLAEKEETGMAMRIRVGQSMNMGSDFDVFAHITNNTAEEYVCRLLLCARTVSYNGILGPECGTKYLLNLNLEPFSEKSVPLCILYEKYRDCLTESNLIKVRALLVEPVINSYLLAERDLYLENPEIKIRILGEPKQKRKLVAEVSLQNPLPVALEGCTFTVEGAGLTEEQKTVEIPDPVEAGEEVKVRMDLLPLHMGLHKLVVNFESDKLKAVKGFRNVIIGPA
Procedure: as §1

[3] = target: T3, purified recombinant human TG2 (tissue transglutaminase) (Homo sapiens, UniProt P21980); experiment: TG2 transamidation activity, biotin X-cadaverine incorporation into N,N′-dimethylcasein (Example 2); conditions: recombinant human TG2 400 ng/ml, 2 h at 37° C.
T3 construct: purchased Zedira, Germany
T3 sequence (P21980 1-687): T2 sequence (P21980 1-687)
Procedure: TG transamidation activity and the affect of inhibitors on activity was measured by biotin X-cadaverine incorporation into N,N′-dimethylcasein. After coating 96 well plates with 100 μl of 10 mg/ml N,N′-dimethylcasein in 50 mM Tris-Cl, pH8 at 4° C. over night, plates were washed with TBS-0.05% Tween-20(v/v), pH 7.6 and TBS, pH 7.6, and 100 μl purified recombinant human TG2 (400 ng/ml Zedira, Germany) (tissue transglutaminase) in 50 mM Tris-HCl, pH7.4, containing 1 mM DTT, 10 mM CaCl2 and 0.1 μM biotin-cadaverine added into the coated wells containing the appropriate concentration of inhibitor. The reaction was allowed to proceed for 2 h at 37° C. The plate was then washed twice with TBS-Tween-20 (v/v), pH 7.6 and once with TBS, pH 7.6 before being blocked with 100 μl of blocking buffer (3% (w/v) BSA in TBS-Tween, pH 7.6) for 30 min at 37° C. After blocking, the wells were incubated with 100 μl HRP-conjugated Extr-Avidin peroxidase (Sigma-Aldrich, UK) in blocking buffer (1:1,000 dilution) for 1 h at 37° C. After another set of washes, TG2 activity was measured using Sigma Fast OPD, tablets dissolved in 20 ml of distilled H2O. The colour was developed by adding 2.5 M H2SO4 and the absorbance at 490 nm measured using a microplate reader ELx808™. All inhibitors were dissolved in DMSO as a 100 mM solution prior to addition to the assay.

IC50 [1] [µM] | IC50 [2] [µM] | IC50 [3] [µM] | Compound
15.5 ± 6.3 | > 500 | > 100 | C[S+](C)CC(=O)N[C@@H](Cc1ccccc1)C(=O)N1CCN(C(=O)OCc2ccccc2)CC1 [EB 1-126]
23.3 ± 5.5 | > 500 | > 100 | C[S+](C)CC(=O)N[C@H](Cc1ccccc1)C(=O)N1CCN(C(=O)OCc2ccccc2)CC1 [EB 1-127]
13.5 ± 4.9 | > 500 | > 100 | C=CC(=O)N[C@H](Cc1ccccc1)C(=O)N1CCN(C(=O)OCc2ccccc2)CC1 [EB 1-131]
